Paper PMC12276035, “Novel Para‐Phenylenediamine‐Based Derivatives as Receptor Tyrosine Kinase‐like Orphan Receptor 1 (ROR1) Inhibitors: An In Vitro Preliminary Characterization” (Chemmedchem, 2025)

What was measured:
JeKo‐1 cells = experiment: Annexin V‐FITC/PI staining apoptosis, flow cytometry; assay type: cell-based, human; conditions: JeKo‐1, 20 μM, 72 h, early and late apoptosis
Description: This observation aligns with previous studies reporting that ROR1 is highly expressed in B‐cell malignancies, including mantle cell lymphoma, where it plays a crucial role in survival signaling and resistance to apoptosis.^[ [10], [32] ^] Given the higher susceptibility of JeKo‐1 cells to the inhibitor, we selected this model for further apoptotic analysis. However, for completeness, apoptotic data for the SH‐SY5Y cell line are also provided in the Supporting Information (Figure S39, Supporting Information). Specifically, cells were incubated with compounds 17, 20, or 29 (20 μM) for 72 h and a flow cytometry analysis using Annexin V/PI staining was performed. After treatment, a very strong increase in the apoptotic response was observed, in both early and late apoptotic populations compared to the negative control (Figure 4 ). […] These findings are in accordance with the literature and further support the potential of ROR1 inhibition in promoting cell death in mantle cell lymphoma.^[ [33] ^]
Figure 4 Proapoptotic activity of compounds 17, 20, and 29 (20 μM) on JeKo‐1 cells treated for 72 h. A) Representative flow cytometry plots using Annexin V‐FITC/PI staining for apoptosis. B) Related quantitative analysis is reported. Data are expressed as a percentage of live, apoptotic, and necrotic cells. Results are shown as mean ± standard deviation (SD) from three independent experiments. *** denote p < 0.001 versus Ctrl.
Apoptosis of the cells was assessed using annexin V‐FITC/PI reagents. JeKo‐1 cells (60 × 10^3 cells/well) were seeded into 24‐well plates and incubated for 72 h with compounds (20 and 10 μM). After treatment, the collected cells were resuspended in a 100 μL assay buffer, then 5 Annexin V‐FITC and 1 PI reagents were added following incubation for 20 min at room temperature according to the manufacturer's protocol (Dead Cell Apoptosis Kits with Annexin V for Flow Cytometry, Thermo Fisher Scientific). Cells were analyzed with a Becton Dickinson FACScan flow cytometer using the Cell Quest software, version 4 (Franklin Lakes, NJ, USA).^[ [46] ^]

[1] = tested on: ROR1 pathways in JeKo‐1 cells; experiment: Western blotting of ROR1 pathway; assay type: cell-based, human; conditions: western blot
Description: This time‐dependent reduction in P‐ROR1 is particularly significant, as it represents the upstream event that drives the observed proapoptotic downstream effects. […] Indeed, activation of ROR1 initiates the nonclassical Wnt (PI3K/AKT/mTOR) pathway and upregulates the phosphorylation level of AKT, which contributes to the survival and proliferation of cancer cells.^[ [25] ^]
Figure 6 Molecular effects of 17 on ROR1 pathways in JeKo‐1 cells. For each western blotting analysis, three independent experiments were performed, and the SD is expressed by error bars. The relative fold change versus untreated cells, set as 1, is shown in the graph. *, **, and *** denote respectively p < 0.05, p < 0.01, and p < 0.001 versus Ctrl.
JeKo‐1 cells (2.5 × 10^6 cells/well) were seeded in a T‐75 flask, treated with compound 17 (10 μM) for different times (4, 8, and 24 h). After treatments, cells were washed twice with PBS and detached with a scraper, centrifuged at 655 g × 10 min at 4 °C. Full proteins were extracted by lysis buffer (20 mM Tris‐HCl pH 7.5, 150 mM NaCl, 1 mM Na2EDTA, 1 mM EGTA, 2% NP‐40, 1% sodium deoxycholate, 1× protease and phosphatase inhibitor cocktail) for 30 min. Then, cell lysates were centrifuged at 4850 g for 20 min at 4 °C. 60 μg of total proteins were run on 8% SDS‐PAGE and transferred to nitrocellulose membranes using a minigel apparatus (Bio‐Rad Laboratories, Hercules, CA, USA). Blots were blocked in phosphate‐buffered saline, containing Tween‐20 0.1% and 5% BSA for 1 h at room temperature and incubated overnight with specific primary antibodies at 4 °C with slight agitation. α‐Tubulin was used as the loading control. […] Antigen‐antibody complexes were detected by enhanced chemiluminescence (ECL kit, Amersham, Germany). […]

[2] = Plasma protein binding, rapid equilibrium dialysis; assay type: in vitro ADME; conditions: 37 °C, read-out: drug bound to plasma proteins
Description: Plasma protein binding plays a crucial role in drug distribution and biological activity. After absorption into systemic circulation, drug molecules may bind to plasma proteins, and the bound drug cannot cross biological membranes, rendering it unavailable to exert a pharmacological effect. Only the free drug, unbound to plasma proteins, is pharmacologically active.
A Rapid Equilibrium Dialysis Plate (Pierce™ RED, Thermo Scientific) was used to determine the percentage of compound binding to plasma proteins. Potassium phosphate buffer was added to each white well, and plasma/compound (1 μM) mixture was added to the red wells. The plate was sealed and incubated at 37 °C on an orbital shaker at 300 rpm for 4 h. Afterward, 50 μL of post‐dialysis samples from the buffer and plasma chambers were transferred into separate microcentrifuge tubes. An equal volume of plasma was added to the buffer sample, while the plasma sample received an equivalent volume of buffer. Precooled IS was added to the assay plate to quench the reaction. Compounds were quantified by LC‐MS/MS. The percentage of free and bound compound was calculated using the following equations: % free = (concentration in buffer chamber/concentration in plasma chamber) × 100, and % bound = 100 − % free.^[ [48] ^] All experiments were performed in duplicate. Propranolol was used as positive control.

fraction unbound at 4 h, 1 μM [2]: 0.01
Structure (SMILES): O=C(NCc1ccc(-c2ccccc2)cc1)Nc1ccc(NCC2CCNCC2)cc1C(F)(F)F [Compound 17]
apoptotic cells (JeKo‐1 cells): 89.02 ± 3.12% | AKT phosphorylation ([1]; JeKo‐1, 10 μM, 4, 8 and 24 h): significant decrease | ROR1 phosphorylation ([1]; JeKo‐1, 10 μM, 4, 8 and 24 h): marked reduction | total ROR1 protein levels ([1]; JeKo‐1, 10 μM, 24 h): increase
